Assay results: PMC12468313, “Use of Amplified Lewy Body Dementia Fibrils and Autoradiography to Characterize Binding of Radioligand Tg-1-90B to Alpha-Synuclein Fibrils in Postmortem Brain Tissue” (Cells, 2025)

Tests used:
[1] = target: T1, IVTris fibrils (recombinant Asyn PFF) (Homo sapiens, UniProt P37840); experiment: [3H]Tg-1-90B saturation binding assay with IVTris fibrils; conditions: 250 nM fibrils
T1 construct: made in house
Experimental: (§1) IVTris fibrils were assembled in vitro by spontaneous nucleation in 20 mM Tris-HCl, pH 8.0, 100 mM NaCl buffer in a total volume of 1500 µL at 2 mg/mL monomer concentration. The incubation was carried out at 37 °C with continuous shaking at 1000 rpm in a Thermomixer (Eppendorf, Framingham, MA, USA) for 72 h. Amplified LBD fibrils were prepared as described in Dhavale et al. and case LBD1 amplified fibrils were used in this study. PD, disease-control and AD insoluble fraction (IF) tissue homogenate was prepared by sequential homogenization of dissected tissue gray matter in a series of detergents followed by centrifugation to obtain insoluble fraction. […]
(§2) A fixed concentration of binding substrates IVTris fibrils (250 nM), amplified LBD fibrils (50 nM), Aβ fibrils (150 nM), tau fibrils (150 nM), PD, AD or disease control homogenate (10 µg/mL) were incubated for 2 h at 37 °C with increasing concentrations of [^3H]Tg-1-90B in a reaction volume of 150 µL in a 96-well plate. […] Filters containing the bound ligand were mixed with 150 µL of Optiphase Supermix scintillation cocktail (PerkinElmer, Waltham, MA, USA) and counted following overnight incubation. […] The dissociation constant (Kd) and the maximal number of binding sites (Bmax) values were determined by fitting the data to the equation Y = Bmax × X/(X + Kd) by non-linear regression using Graphpad Prism software (version 7.0).

[2] = target: T2, amplified LBD fibrils (PDB 8FPT) alpha-synuclein (Homo sapiens, UniProt P37840); experiment: [3H]Tg-1-90B saturation binding assay with amplified LBD fibrils; conditions: 50 nM fibrils
T2 construct: made in house
Experimental: as §1, §2

Kd ([1]; 2 h 37 °C, one site saturable specific binding): 0.0401 ± 0.0019 µM
average Bmax, IVTris fibrils ([1]; per nmol Asyn): 22.3 ± 0.1 pmol/nmol
Kd ([2]; 2 h 37 °C): 0.0175 µM
average Bmax, amplified LBD fibrils ([2]; per nmol Asyn): 20.6 ± 2.5 pmol/nmol
Structure (SMILES): COc1ccc(/C=C/c2cc(-c3nccs3)on2)cc1 [Tg-1-90B]
